In brackets after ≈: the same amount, converted by molar mass.
How the values were obtained:
Type in all cases: functional, organism-based
[1] = system: Rhizoctonia solani; experiment: Antifungal activity against Rhizoctonia solani Kuhn by mycelium growth rate test
[2] = system: Botrytis cinerea; experiment: Antifungal activity against Botryotinia fuckeliana by mycelium growth rate test
[3] = system: Sclerotinia sclerotiorum; experiment: Antifungal activity against Sclerotinia sclerotiorum by mycelium growth rate test
[4] = system: Pyricularia oryzae; experiment: Antifungal activity against Magnaporthe oryzae by mycelium growth rate test
[5] = system: Phomopsis asparagi; experiment: Antifungal activity against Phomopsis asparagi by mycelium growth rate test

SMILES | EC50 [1] [µg/mL] | EC50 [2] [µg/mL] | EC50 [3] [µg/mL] | EC50 [4] [µg/mL] | EC50 [5] [µg/mL]
CN(C)C(=S)SSC(=S)N(C)C [THIRAM] | 0.9 (≈ 3.74 µM) | – | – | – | –
O=C1CCCCCCCCCCC2(CCCO1)N=N/C(=N/c1ccccc1Br)S2 (stereo not given) | 208 (≈ 432 µM) | 36.4 (≈ 75.8 µM) | 205 (≈ 426 µM) | 246 (≈ 512 µM) | 53.5 (≈ 111 µM)
Cc1cccc(/N=C2/N=NC3(CCCCCCCCCCC(=O)NCCC3)S2)c1 (stereo not given) | 30.7 (≈ 74.1 µM) | 6.42 (≈ 15.5 µM) | 4.42 (≈ 10.7 µM) | 63.2 (≈ 152 µM) | 9.67 (≈ 23.3 µM)
O=C1CCCCCCCCCCC2(CCCN1)N=N/C(=N/c1cccc3ccccc13)S2 (stereo not given) | 17.8 (≈ 39.5 µM) | 15.7 (≈ 34.9 µM) | 767 (≈ 1700 µM) | 196 (≈ 434 µM) | 46.1 (≈ 102 µM)
Cc1cc(C)nc(Nc2ccccc2)n1 [PYRIMETHANIL] | – | 0.14 (≈ 0.703 µM) | – | – | –
N#Cc1c(Cl)c(Cl)c(Cl)c(C#N)c1Cl [CHLOROTHALONIL] | – | – | 0.41 (≈ 1.54 µM) | – | 4.35 (≈ 16.4 µM)
O=C1CCCCCCCCCCC2(CCCO1)N=N/C(=N/c1ccc(Cl)cc1)S2 (stereo not given) | 126 (≈ 290 µM) | 49.9 (≈ 115 µM) | 59.9 (≈ 137 µM) | 338 (≈ 776 µM) | 42.5 (≈ 97.4 µM)
O=C1CCCCCCCCCCC2(CCCN1)N=N/C(=N/c1ccccc1Cl)S2 (stereo not given) | 31.8 (≈ 73.1 µM) | 14.9 (≈ 34.2 µM) | 242 (≈ 555 µM) | 41.5 (≈ 95.4 µM) | 24.5 (≈ 56.3 µM)
COc1ccc(/N=C2/N=NC3(CCCCCCCCCCC(=O)NCCC3)S2)cc1 (stereo not given) | 93 (≈ 216 µM) | 6.47 (≈ 15 µM) | 87.2 (≈ 203 µM) | 57.8 (≈ 134 µM) | 20.6 (≈ 47.7 µM)
CC(C)OC(=O)C(C(=O)OC(C)C)=C1SCCS1 [ISOPROTHIOLANE] | – | – | – | 7.19 (≈ 24.8 µM) | –
COc1ccccc1/N=C1/N=NC2(CCCCCCCCCCC(=O)NCCC2)S1 (stereo not given) | 37.9 (≈ 88 µM) | 21.8 (≈ 50.7 µM) | 21.1 (≈ 49 µM) | 398 (≈ 924 µM) | 517 (≈ 1200 µM)
O=C1CCCCCCCCCCC2(CCCN1)N=N/C(=N/Cc1ccccc1)S2 (stereo not given) | 23.5 (≈ 56.7 µM) | 14.4 (≈ 34.8 µM) | 8.32 (≈ 20.1 µM) | 117 (≈ 282 µM) | 21.3 (≈ 51.4 µM)
Cc1ccc(C)c(/N=C2/N=NC3(CCCCCCCCCCC(=O)OCCC3)S2)c1 (stereo not given) | 422 (≈ 982 µM) | 126 (≈ 294 µM) | 163 (≈ 379 µM) | 3120 (≈ 7270 µM) | 208 (≈ 485 µM)
Cc1ccc(C)c(/N=C2/N=NC3(CCCCCCCCCCC(=O)NCCC3)S2)c1 (stereo not given) | 5.62 (≈ 13.1 µM) | 18.6 (≈ 43.3 µM) | 34.3 (≈ 80 µM) | 86.6 (≈ 202 µM) | 16.4 (≈ 38.3 µM)
O=C1CCCCCCCCCCC2(CCCN1)N=N/C(=N/c1ccccc1Br)S2 (stereo not given) | 56.1 (≈ 117 µM) | 19.9 (≈ 41.4 µM) | 533 (≈ 1110 µM) | 57.6 (≈ 120 µM) | 60.3 (≈ 126 µM)
O=C1CCCCCCCCCCC2(CCCO1)N=N/C(=N/c1ccc(Br)cc1)S2 (stereo not given) | 17.1 (≈ 35.6 µM) | 49.9 (≈ 104 µM) | 38.3 (≈ 79.7 µM) | 338 (≈ 704 µM) | 29.2 (≈ 60.8 µM)
O=C1CCCCCCCCCCC2(CCCO1)N=N/C(=N/c1ccccc1Cl)S2 (stereo not given) | 159 (≈ 365 µM) | 43.8 (≈ 100 µM) | 169 (≈ 388 µM) | 211 (≈ 485 µM) | 116 (≈ 267 µM)
Cc1ccccc1/N=C1/N=NC2(CCCCCCCCCCC(=O)NCCC2)S1 (stereo not given) | 125 (≈ 301 µM) | 4.21 (≈ 10.2 µM) | 375 (≈ 905 µM) | 78.4 (≈ 189 µM) | 73.8 (≈ 178 µM)
O=C1CCCCCCCCCCC2(CCCN1)N=N/C(=N/c1ccc(Cl)cc1)S2 (stereo not given) | 39.5 (≈ 90.8 µM) | 18.7 (≈ 42.9 µM) | 48.2 (≈ 111 µM) | 0.054 (≈ 0.124 µM) | 102 (≈ 234 µM)
Cc1ccc(/N=C2/N=NC3(CCCCCCCCCCC(=O)NCCC3)S2)cc1 (stereo not given) | 71.8 (≈ 173 µM) | 25.1 (≈ 60.5 µM) | 34.1 (≈ 82.2 µM) | 139 (≈ 335 µM) | 14.5 (≈ 35 µM)
O=C1CCCCCCCCCCC2(CCCN1)N=N/C(=N/c1ccccc1)S2 (stereo not given) | 42.1 (≈ 105 µM) | 5.01 (≈ 12.5 µM) | 9.92 (≈ 24.8 µM) | 41.5 (≈ 104 µM) | 14.2 (≈ 35.4 µM)
Cc1cccc(/N=C2/N=NC3(CCCCCCCCCCC(=O)NCCC3)S2)c1C (stereo not given) | 22.4 (≈ 52.2 µM) | 22.6 (≈ 52.7 µM) | 36.5 (≈ 85.2 µM) | 199 (≈ 465 µM) | 14.8 (≈ 34.6 µM)
Cc1ccc(/N=C2/N=NC3(CCCCCCCCCCC(=O)NCCC3)S2)c(C)c1 (stereo not given) | 26.8 (≈ 62.4 µM) | 9.63 (≈ 22.5 µM) | 55.7 (≈ 130 µM) | 30.9 (≈ 72.1 µM) | 5.26 (≈ 12.3 µM)
O=C1CCCCCCCCCCC2(CCCN1)N=N/C(=N/c1ccc(Cl)c(Cl)c1)S2 (stereo not given) | 36.8 (≈ 78.4 µM) | 34.2 (≈ 72.9 µM) | 15 (≈ 32 µM) | 0.72 (≈ 1.53 µM) | 9.02 (≈ 19.2 µM)
O=C1CCCCCCCCCCC2(CCCN1)N=N/C(=N/c1cc(Cl)ccc1Cl)S2 (stereo not given) | 41.8 (≈ 89 µM) | 29.6 (≈ 63 µM) | 109 (≈ 233 µM) | 1.11 (≈ 2.36 µM) | 222 (≈ 472 µM)

— ChEMBL document CHEMBL3044651, “Synthesis, fungicidal activity, and structure-activity relationship of spiro-compounds containing macrolactam (macrolactone) and thiadiazoline rings” (J Agric Food Chem, 2010)
